Reference: ChEMBL document CHEMBL4371047, “Effect of α-Methoxy Substitution on the Anti-HIV Activity of Dihydropyrimidin-4(3 H)-ones” (J Med Chem, 2019)

How the values were obtained:
[1] = system: Human immunodeficiency virus 1; assay: Resistance index, ratio of EC50 for HIV-1 IRLL98 harboring reverse transcriptase M41L, D67N, Y181C, M184V, R211K, and T215Y mutants to EC50 for wild type HIV-1 NL4-3; format: functional
[2] = system: Human immunodeficiency virus type 1 reverse transcriptase (Human immunodeficiency virus 1), Q72547 [L100I]
[3] = system: Human immunodeficiency virus 1; assay: Antiviral activity against HIV-1 IRLL98 harboring reverse transcriptase M41L, D67N, Y181C, M184V, R211K, and T215Y mutants infected in human MT4 cells assessed as inhibition of virus-induced cytopathic effect after 5 days by MTT assay; format: functional, organism-based; settings: Human immunodeficiency virus 1, IRLL98, MT4, 120 h
[4] = system: Human immunodeficiency virus type 1 reverse transcriptase (Human immunodeficiency virus 1), Q72547 [K103N]
Description: Inhibition of recombinant HIV-1 His-tagged reverse transcriptase p66/p51 K103N mutant expressed in Escherichia coli assessed as reduction in [3H]dTTP incorporation using poly(rA)/oligo(dT) as template/primer after 20 mins by scintillation counting analysis

[5] = biological target: Human immunodeficiency virus type 1 reverse transcriptase (Human immunodeficiency virus 1) (UniProt Q72547)
Description: Inhibition of recombinant wild type HIV-1 His-tagged reverse transcriptase p66/p51 expressed in Escherichia coli assessed as reduction in [3H]dTTP incorporation using poly(rA)/oligo(dT) as template/primer after 20 mins by scintillation counting analysis

[6] = Therapeutic index, ratio of CC50 for human MT4 cells to EC50 for HIV-1 NL4-3 infected in human MT4 cells; format: toxicity, cell-based; settings: read-out: Ratio CC50/EC50
[7] = Cytotoxicity against human MT4 cells assessed as reduction in cell viability after 5 days by MTT assay; format: cell-based
[8] = system: Human immunodeficiency virus 1; assay: Antiviral activity against wild type HIV 1 NL4-3 infected in human MT4 cells assessed as inhibition of virus-induced cytopathic effect after 5 days by MTT assay; format: functional, organism-based; settings: Human immunodeficiency virus 1, NL4-3, MT4, 120 h
[9] = system: Human immunodeficiency virus 1; assay: Antiviral activity against HIV-1 harboring reverse transcriptase K103N mutant infected in human MT4 cells assessed as inhibition of virus-induced cytopathic effect after 5 days by MTT assay; format: functional, organism-based; settings: Human immunodeficiency virus 1, MT4, 120 h
[10] = system: Human immunodeficiency virus type 1 reverse transcriptase (Human immunodeficiency virus 1), Q72547 [Y181I]
[11] = system: Human immunodeficiency virus 1; assay: Antiviral activity against HIV 1 harboring reverse transcriptase Y181C mutant infected in human MT4 cells assessed as inhibition of virus-induced cytopathic effect after 5 days by MTT assay; format: functional, organism-based; settings: Human immunodeficiency virus 1, MT4, 120 h
[12] = system: Human immunodeficiency virus 1; assay: Resistance index, ratio of EC50 for HIV-1 harboring reverse transcriptase Y181C mutant to EC50 for wild type HIV-1 NL4-3; format: functional
[13] = system: Human immunodeficiency virus 1; assay: Resistance index, ratio of EC50 for HIV-1 harboring reverse transcriptase K103N mutant to EC50 for wild type HIV-1 NL4-3; format: functional
[14] = system: Human immunodeficiency virus 1; assay: Antiviral activity against HIV-1 harboring reverse transcriptase Y188L mutant infected in human MT4 cells assessed as inhibition of virus-induced cytopathic effect after 5 days by MTT assay; format: functional, organism-based; settings: Human immunodeficiency virus 1, MT4, 120 h
[15] = system: Human immunodeficiency virus 1; assay: Resistance index, ratio of ID50 for recombinant HIV-1 His-tagged reverse transcriptase p66/p51 L100I mutant to ID50 for recombinant wild type HIV-1 reverse transcriptase His-tagged p66/p51
[16] = system: Human immunodeficiency virus 1; assay: Resistance index, ratio of EC50 for HIV-1 harboring reverse transcriptase Y188L mutant to EC50 for wild type HIV-1 NL4-3; format: functional
[17] = system: Human immunodeficiency virus 1; assay: Resistance index, ratio of ID50 for recombinant HIV-1 His-tagged reverse transcriptase p66/p51 Y181I mutant to ID50 for recombinant wild type HIV-1 reverse transcriptase His-tagged p66/p51
[18] = system: Human immunodeficiency virus 1; assay: Resistance index, ratio of ID50 for recombinant HIV-1 His-tagged reverse transcriptase p66/p51 K103N mutant to ID50 for recombinant wild type HIV-1 reverse transcriptase His-tagged p66/p51

Compound	Ratio EC50 [1]	ID50 [2]	EC50 [3]	ID50 [4]	ID50 [5]	selectivity ratio [6]	CC50 at 120 h [7]	EC50 [8]	EC50 [9]	ID50 [10]	EC50 [11]	Ratio EC50 [12]	Ratio EC50 [13]	EC50 [14]	Ratio [15]	Ratio EC50 [16]	Ratio [17]	Ratio [18]
Cc1c(O)nc(SC(C)C)nc1C(C)c1c(F)cccc1F (stereo not drawn)	145	280 nM	145 nM	580 nM	3 nM													
CCC(C)Sc1nc(C(CC)c2c(F)cccc2F)c(C)c(=O)[nH]1 (stereo not drawn)	187	48 nM	150 nM	140 nM	6 nM	> 3750	> 3 µM											
Cc1c(C(C)c2c(F)cccc2Cl)nc(SC2CCCC2)[nH]c1=O (stereo not drawn)	2267	120 nM	68 nM	1300 nM	11 nM	> 500000	> 15 µM											
Cc1cc(C)c(Nc2ccnc(Nc3ccc(C#N)cc3)n2)c(C)c1 [DAPIVIRINE]			6 nM					0.6 nM	2.2 nM									
CO[C@@H](c1nc(SC(C)C)[nH]c(=O)c1C)c1c(F)cccc1Cl		400 nM		35 nM	2 nM	> 722000	> 65 µM	0.09 nM	0.6 nM	1.1 µM	0.9 nM	10	10	0.001 µM	200	11	550	17
CCC(c1nc(SC(C)C)[nH]c(=O)c1C)c1c(F)cccc1F (stereo not drawn)	70	210 nM	280 nM	310 nM	4 nM	> 7500	> 30 µM											
CCCNc1nc(C(C)c2c(F)cccc2F)c(C)c(=O)[nH]1 (stereo not drawn)	30	310 nM	90 nM	470 nM	40 nM	11700	35 µM			5.02 µM	60 nM	20		> 10 µM	8		125	12
Cc1c(C(C)c2c(F)cccc2F)nc(SC2CCCC2)[nH]c1=O (stereo not drawn)	120	300 nM	120 nM	300 nM	5 nM	> 3000	> 3 µM	1 nM	230 nM	0.9 µM		100			60		180	60
CCC(C)Sc1nc(O)c(C)c(C(C)c2c(F)cccc2F)n1 (stereo not drawn)	88	670 nM	79 nM	1700 nM	31 nM	> 3330	> 3 µM											
COC(c1nc(NC2CCCC2)[nH]c(=O)c1C)c1c(F)cccc1Cl (stereo not drawn)		1100 nM		120 nM	40 nM	10000	70.3 µM	7 nM	170 nM	1.5 µM	390 nM	56	24	3.7 µM	27	529	37	3
COC(c1nc(NC2CCCC2)[nH]c(=O)c1C)c1c(Cl)cccc1Cl (stereo not drawn)		1900 nM		540 nM	56 nM	3400	34 µM	10 nM	840 nM	2.4 µM	1400 nM	140	84	5.4 µM	34	540	43	10
CCC(c1nc(SC2CCCC2)[nH]c(=O)c1C)c1c(F)cccc1F (stereo not drawn)	68	110 nM	750 nM	380 nM	5 nM	2730	30 µM					100						
CCCN(C)c1nc([C@@H](OC)c2c(Cl)cccc2Cl)c(C)c(=O)[nH]1		4300 nM		438 nM	177 nM	3010	45.2 µM	15 nM	185 nM	8.7 µM	185 nM	12	12	0.38 µM	24	25	49	2
COC(c1nc(NC(C)C)[nH]c(=O)c1C)c1c(Cl)cccc1Cl (stereo not drawn)		3800 nM		5200 nM	340 nM	651	62.5 µM	96 nM	3000 nM	7.8 µM	5800 nM	60	31	12.2 µM	11	127	23	15
CCCNc1nc(C(OC)c2c(Cl)cccc2Cl)c(C)c(=O)[nH]1 (stereo not drawn)		2200 nM		1600 nM	120 nM	3280	49.2 µM	15 nM	210 nM	3.7 µM	1700 nM	113	14	7.6 µM	18	507	31	13
